Test results published in patent US7776924B2, “Nitroaniline-based alkylating agents and their use as prodrugs” (Auckland Uniservices Limited, priority 2002, dated 2010).
Marks after values point to notes of the source that are not given here.

Tests used:
Type in all cases: cell-based
[1] = system: SKOV3; experiment: Cytotoxicity in wild-type (NR−) human ovarian cell line SKOV3
[2] = system: SC3.2; experiment: Cytotoxicity in NTR-transfected (NR+) human ovarian cell line SC3.2; settings: for IC50: SC3.2 NTR-transfected, 18 h exposure; for Ratio = IC50(NR−)/IC50(NR+) Human Ovarian: SKOV3 / SC3.2, 18 h exposure
[3] = system: WIDR; experiment: Cytotoxicity in wild-type (NR−) human colon cell line WIDR
[4] = system: WC14.10; experiment: Cytotoxicity in NTR-transfected (NR+) human colon cell line WC14.10; settings: for IC50: WC14.10 NTR-transfected
[5] = system: A549 human lung carcinoma cells; experiment: Cytotoxicity in oxic and anoxic wild-type A549 human lung carcinoma cells; settings: 4 h exposure; for IC50: anoxic, read-out: IC50 WT anoxic
[6] = system: A549 transfected with human cytochrome P450 reductase (P450R); experiment: Cytotoxicity in oxic and anoxic A549 cells transfected with human cytochrome P450 reductase; settings: 4 h exposure; for IC50: anoxic
[7] = Homo sapiens, SK-OV-3, 18 h exposure

Structure (SMILES)	IC50 ([1]; 18 h exposure) [µM]	IC50 [2] [µM]	Ratio = IC50(NR−)/IC50(NR+) Human Ovarian [2]	IC50 ([3]; 18 h exposure) [µM]	IC50 ([4]; 18 h exposure) [µM]	Ratio = IC50(NR−)/IC50(NR+) Human colon ([4]; WIDR / WC14.10, 18 h exposure)	further results
CS(=O)(=O)OCCN(CCBr)c1c(C(=O)NCC(O)CO)cc([N+](=O)[O-])cc1[N+](=O)[O-] (stereo not shown) [IIb6, 2-((2-Bromoethyl)-2-{[(2,3-dihydroxypropyl)amino]carbonyl}-4,6-dinitroanilino)ethyl methanesulfonate]	26	0.19	140	11	0.21	52	
COC(=O)CCNC(=O)c1cc([N+](=O)[O-])cc([N+](=O)[O-])c1N(CCBr)CCOS(C)(=O)=O [IIb9, Methyl 3-{[2-((2-bromoethyl){2-[(methylsulfonyl)oxy]ethyl}amino)-3,5-dinitrobenzoyl]amino}propanoate]			25			6.3	IC50 [1, 7]: 3.7 µM; IC50 ([2]; Homo sapiens): 0.15 µM; IC50 ([3]; Homo sapiens, 18 h exposure): 1.44 µM; IC50 ([4]; Homo sapiens, 18 h exposure): 0.24 µM
NC(=O)c1cc(N(CCCl)CCBr)c([N+](=O)[O-])cc1[N+](=O)[O-] [IIa2, 5-[(2-Bromoethyl)(2-chloroethyl)amino]-2,4-dinitrobenzamide]			280			235	IC50 [1, 7]: 226 µM; IC50 ([2]; Homo sapiens): 0.84 µM; IC50 ([3]; Homo sapiens, 18 h exposure): 150 µM; IC50 ([4]; Homo sapiens, 18 h exposure): 0.69 µM
CS(=O)(=O)OCCN(CCCl)c1ccc([N+](=O)[O-])c(C(=O)NCCCN2CCOCC2)c1[N+](=O)[O-] [IIc9, 2-[(2-Chloroethyl)-3-({[3-(4-morpholinyl)propyl]amino}carbonyl)-2,4-dinitroanilino]ethyl methanesulfonate]	433	32	14	262	31	8.3	
CS(=O)(=O)OCCN(CCCl)c1c(C(N)=O)cc([N+](=O)[O-])cc1[N+](=O)[O-] [IIb1, 2-[2-(Aminocarbonyl)(2-chloroethyl)-4,6-dinitroanilino]ethyl methanesulfonate]	80	0.04	1890	20	0.07	303	
CS(=O)(=O)OCCN(CCBr)c1c([N+](=O)[O-])ccc(C(N)=O)c1[N+](=O)[O-] [IIc2, 2-[3-(Aminocarbonyl)(2-bromoethyl)-2,6-dinitroanilino]ethyl methanesulfonate]	150	0.21	724	85	0.31	271	
CS(=O)(=O)OCCN(CCBr)c1c(C(=O)NCCCN2CCOCC2)cc([N+](=O)[O-])cc1[N+](=O)[O-] [IIb7, 2-[(2-Bromoethyl)-2-({[3-(4-morpholinyl)propyl]amino}carbonyl)-4,6-dinitroanilino]ethyl methanesulfonate]	3.1	0.03	102	0.89	0.05	22	
CS(=O)(=O)OCCN(CCBr)c1c([N+](=O)[O-])ccc(C(=O)NCCO)c1[N+](=O)[O-] [IIc3, 2-((2-Bromoethyl)-3-{[(2-hydroxyethyl)amino]carbonyl}-2,6-dinitroanilino)ethyl methanesulfonate]							IC50 ([3]; 4 h exposure): 425 µM; IC50 ([4]; 4 h exposure): 5.1 µM; Ratio = IC50(NR−)/IC50(NR+) Human colon ([4]; WIDR / WC14.10, 4 h exposure): 83^f; WT Ratio = IC50(aerobic)/IC50(anoxic) [5]: 20; IC50 [5]: 28 µM; P450R ratio = IC50(aerobic)/IC50(anoxic) [6]: 146; IC50 [6]: 2.9 µM
CS(=O)(=O)OCCN(CCBr)c1c(C(N)=O)cc([N+](=O)[O-])cc1[N+](=O)[O-] [IIb2, 2-[2-(Aminocarbonyl)(2-bromoethyl)-4,6-dinitroanilino]ethyl methanesulfonate]	6	0.007	762	4.3	0.02	227	
CS(=O)(=O)OCCN(CCBr)c1ccc([N+](=O)[O-])c(C(=O)NCC(O)CO)c1[N+](=O)[O-] (stereo not shown) [IIc8, 2-((2-Bromoethyl)-3-{[(2,3-dihydroxypropyl)amino]carbonyl}-2,4-dinitroanilino)ethyl methanesulfonate]	890	1.8	509	214	1.5	141	
CS(=O)(=O)OCCN(CCI)c1c(C(=O)NCCO)cc([N+](=O)[O-])cc1[N+](=O)[O-] [IIb4, 2-((2-Iodoethyl)-2-{[(2-hydroxyethyl)amino]carbonyl}-4,6-dinitroanilino)ethyl methanesulfonate]							IC50 ([3]; 4 h exposure): 9 µM; IC50 ([4]; 4 h exposure): 0.29 µM; Ratio = IC50(NR−)/IC50(NR+) Human colon ([4]; WIDR / WC14.10, 4 h exposure): 31^f; WT Ratio = IC50(aerobic)/IC50(anoxic) [5]: 7; IC50 [5]: 4.5 µM; P450R ratio = IC50(aerobic)/IC50(anoxic) [6]: 95; IC50 [6]: 0.45 µM
CS(=O)(=O)OCCN(CCCl)c1ccc([N+](=O)[O-])c(C(N)=O)c1[N+](=O)[O-] [IIc1, 2-[3-(Aminocarbonyl)(2-chloroethyl)-2,4-dinitroanilino]ethyl methanesulfonate]	196	0.55	390	121	1	120	
CS(=O)(=O)OCCN(CCBr)c1c([N+](=O)[O-])ccc(C(=O)NCCCCO)c1[N+](=O)[O-] [IIc6, 2-((2-Bromoethyl)-3-{[(4-hydroxybutyl)amino]carbonyl}-2,6-dinitroanilino)ethyl methanesulfonate]							IC50 ([3]; 4 h exposure): 314 µM; IC50 ([4]; 4 h exposure): 20 µM; Ratio = IC50(NR−)/IC50(NR+) Human colon ([4]; WIDR / WC14.10, 4 h exposure): 16^f
CS(=O)(=O)OCCN(CCBr)c1cc(C(=O)NCC(O)CO)c([N+](=O)[O-])cc1[N+](=O)[O-] (stereo not shown) [IIa7, 2-((2-Bromoethyl)-5-{[(2,3-dihydroxypropyl)amino]carbonyl}-2,4-dinitroanilino)ethyl methanesulfonate]	1110	1.74		804	3	268	
CS(=O)(=O)OCCN(CCI)c1cc(C(N)=O)c([N+](=O)[O-])cc1[N+](=O)[O-] [IIa4, 2-[5-(Aminocarbonyl)(2-iodoethyl)-2,4-dinitroanilino]ethyl methanesulfonate]	97	0.33	311	70	0.41	172	
CS(=O)(=O)OCCN(CCBr)c1cc(C(N)=O)c([N+](=O)[O-])cc1[N+](=O)[O-] [IIa3, 2-[5-(Aminocarbonyl)(2-bromoethyl)-2,4-dinitroanilino]ethyl methanesulfonate]	135	0.19	715	80	0.22	387	
CS(=O)(=O)OCCN(CCBr)c1ccc([N+](=O)[O-])c(C(=O)NCCCN2CCOCC2)c1[N+](=O)[O-] [IIc10, 2-[(2-Bromoethyl)-3-({[3-(4-morpholinyl)propyl]amino}carbonyl)-2,4-dinitroanilino]ethyl methanesulfonate]	156	11	14	94	11	8.2	
CS(=O)(=O)OCCN(CCCl)c1ccc([N+](=O)[O-])c(C(=O)NCC(O)CO)c1[N+](=O)[O-] (stereo not shown) [IIc7, 2-((2-Chloroethyl)-3-{[(2,3-dihydroxypropyl)amino]carbonyl}-2,4-dinitroanilino)ethyl methanesulfonate]	1680	6.6	267	856	4.3	262	
